Experiment [1] has as its target T1, human noradrenaline transporter (hNET) (Homo sapiens, UniProt P23975).
T1 construct: expressed in transfected cells; host or cells: HEK-293
Description: Inhibition of 3H-noradrenaline uptake in HEK-293 cells expressing hNET. The experiment is classed as cell-based. Particulars: HEK-293 cells with hNET; 3H-noradrenaline 200 nM; 15 min incubation at 25° C.; read-out: NRI IC50. Here is the method:
(§1) The compounds were tested for biological activity by their ability to inhibit the uptake of serotonin and/or noradrenaline by human serotonin and/or noradrenaline transporters as follows.
(§2) (i) Cell Culture • Human embryonic kidney cells (HEK-293) stably transfected with either the human serotonin transporter (hSERT), noradrenaline transporter (hNET) or dopamine transporter (hDAT) were cultured under standard cell culture techniques (cells were grown at 37° C. and 5% CO2in either Dulbecco's Modified Eagle's Medium (DMEM) culture media supplemented with 10% dialysed foetal calf serum (FCS), 2 mM L-glutamine and 250 μg/ml geneticin (hSERT and hNET cells) or DMEM-culture media supplemented with 5% FCS, 5% new-born calf serum, 2 mM L-glutamine and […] (hDAT cells)). Prior to assay, cells were harvested by dissociation using cell dissociation solution (Sigma) and centrifugation, and resuspended in standard assay buffer (see below) at a viable cell density of 750,000 cells/ml.
(§3) (i) Determination of Inhibitor Potency • All test compounds were dissolved in 100% DMSO at 4 mM and diluted down in 1% DMSO in water to give appropriate test concentrations. Assays were carried out in 96-well filter bottom plates. Cells expressing the appropriate human transporter protein (75,000 cells/assay well) were pre-incubated at 25° C. in standard assay buffer containing either test compound, a standard inhibitor (positive control) or compound vehicle (DMSO in water; final DMSO concentration was 0.1% in each assay well) for 5 minutes. Reactions were started by addition of either ^3H-serotonin, ^3H-noradrenaline or ^3H-dopamine substrates. All reactions were carried out at 25° C. in a shaking incubator. Incubation times were 5 minutes for the hSERT and hDAT assays and 15 minutes for the hNET assay. Reactions were terminated by addition of ice-cold wash buffer (see below), followed by filtration of the assay mixture using a vacuum manifold and rapid washing with icecold wash buffer. The quantity of ^3H-substrate incorporated into the cells was then quantified: Filtered/washed assay plates were dried at 45° C. for 1 hour, scintillation fluid added, and radioactivity measured by scintillation counting. Potency of test compounds was quantified as IC50 values (concentration of test compound required to inhibit the specific uptake of radiolabelled substrate into the cells by 50% relative to maximum (compound vehicle only) and minimum (complete inhibition by standard inhibitor) responses).
(§4) (iii) Standard Assay Buffer Composition: • Tris(hydroxymethyl)amino methane hydrochloride (26 mM) • NaCl (124 mM) • KCl (4.5 mM) • KH2PO4 (1.2 mM) • MgCl2.6H2O (1.3 mM) • Ascorbic acid (1.136 mM) • Glucose (5.55 mM) • pH 7.40 • CaCl2 (2.8 mM) • Pargyline (100 μM) • Note: The pH of the buffer was adjusted to 7.40 with 1 M NaOH before addition of CaCl2 and pargyline. • Wash Buffer Composition: • Tris(hydroxymethyl)methylamine (26 mM) • NaCl (124 mM) • KCl (4.5 mM) • KH2PO4 (1.2 mM) • MgCl2.6H2O (1.3 mM) • Ascorbic acid (1.136 mM) • pH 7.40 at 4° C. with 6M HCl
(§5) (iv) Summary of Assay Parameters

Experiment [2] has as its target T2, human serotonin transporter (hSERT) (Homo sapiens, UniProt P31645).
T2 construct: expressed in transfected cells; host or cells: HEK-293
The experiment is described as follows: Inhibition of 3H-serotonin uptake in HEK-293 cells expressing hSERT. The experiment is classed as cell-based. Particulars: HEK-293 cells with hSERT; 3H-5HT 50 nM; 5 min incubation at 25° C.; read-out: SRI IC50. Here is the method: as §1, §2, §3, §4, §5

Where a name gives a salt, the structure may show the parent alone.

This note sets out measurements from patent US7378436B2, “Compounds” (Pfizer Inc., priority 2003, dated 2008).

T1 sequence (P23975 whole entry): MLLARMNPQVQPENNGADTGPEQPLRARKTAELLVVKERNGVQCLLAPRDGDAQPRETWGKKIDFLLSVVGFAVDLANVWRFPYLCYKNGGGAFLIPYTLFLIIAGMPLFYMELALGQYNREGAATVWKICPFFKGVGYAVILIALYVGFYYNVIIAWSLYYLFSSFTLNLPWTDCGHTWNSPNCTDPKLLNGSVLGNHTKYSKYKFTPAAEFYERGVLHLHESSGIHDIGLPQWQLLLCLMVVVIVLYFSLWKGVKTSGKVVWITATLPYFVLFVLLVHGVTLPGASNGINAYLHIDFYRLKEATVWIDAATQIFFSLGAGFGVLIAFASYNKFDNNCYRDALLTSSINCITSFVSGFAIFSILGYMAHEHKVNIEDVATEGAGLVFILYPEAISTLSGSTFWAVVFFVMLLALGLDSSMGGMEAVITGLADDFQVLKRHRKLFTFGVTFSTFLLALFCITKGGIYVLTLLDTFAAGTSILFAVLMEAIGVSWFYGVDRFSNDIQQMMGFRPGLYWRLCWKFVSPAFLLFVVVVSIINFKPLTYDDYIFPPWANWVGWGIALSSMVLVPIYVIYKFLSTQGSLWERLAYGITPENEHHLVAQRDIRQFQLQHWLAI
T2 sequence (P31645 whole entry): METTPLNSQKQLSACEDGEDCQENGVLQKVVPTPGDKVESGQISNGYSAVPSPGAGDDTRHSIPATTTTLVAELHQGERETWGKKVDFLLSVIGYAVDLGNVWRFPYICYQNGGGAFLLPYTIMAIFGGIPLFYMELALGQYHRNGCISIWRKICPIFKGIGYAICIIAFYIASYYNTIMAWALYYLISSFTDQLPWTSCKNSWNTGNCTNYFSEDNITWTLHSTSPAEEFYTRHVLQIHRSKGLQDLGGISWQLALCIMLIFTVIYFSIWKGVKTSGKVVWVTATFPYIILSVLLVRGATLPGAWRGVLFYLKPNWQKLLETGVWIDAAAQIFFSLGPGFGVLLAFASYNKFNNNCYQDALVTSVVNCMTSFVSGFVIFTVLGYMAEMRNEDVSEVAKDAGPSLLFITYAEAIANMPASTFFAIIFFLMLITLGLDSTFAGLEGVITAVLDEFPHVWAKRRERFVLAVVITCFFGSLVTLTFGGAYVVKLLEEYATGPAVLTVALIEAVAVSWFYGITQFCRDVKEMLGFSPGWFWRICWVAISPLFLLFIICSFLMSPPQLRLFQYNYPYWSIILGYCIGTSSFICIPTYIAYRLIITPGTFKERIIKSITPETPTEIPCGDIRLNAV

Consider `CC(C)CN(C(=O)c1cccc(Cl)c1Cl)[C@H]1CCNC1` [Example 1, 2,3-Dichloro-N-isobutyl-N-[(3S)-pyrrolidin-3-yl]benzamide citrate], for which the IC50 in experiment [1] came out at 14.1 nM; in experiment [2], 13.9 nM.

With `CC(C)CN(C(=O)c1ccc(Cl)cc1Cl)[C@H]1CCNC1` [Example 2, 2,4-Dichloro-N-isobutyl-N-[(3S)-pyrrolidin-3-yl]benzamide hydrochloride], the IC50 in experiment [1] was found to be 28.5 nM; in experiment [2], 9.7 nM.

Turning to `Cc1cccc(C(=O)N(CC(C)C)[C@H]2CCNC2)c1Cl` [Example 3, 2-Chloro-3-methyl-N-isobutyl-N-[(3S)-pyrrolidin-3-yl]benzamide], the half-maximal inhibitory concentration (IC50) was found to be 21.2 nM in experiment [1] and 22.3 nM in experiment [2].

For `Cc1c(F)cccc1C(=O)N(CC(C)C)[C@H]1CCNC1` [Example 4, 3-Fluoro-2-methyl-N-isobutyl-N-[(3S)-pyrrolidin-3-yl]benzamide], the IC50 in experiment [1] stood at 45.9 nM; in experiment [2] it was 18.8 nM.

Take `COc1cccc(C(=O)N(CC(C)C)[C@H]2CCNC2)c1C` [Example 5, 3-Methoxy-2-methyl-N-isobutyl-N-[(3S)-pyrrolidin-3-yl]benzamide]: the values for the IC50 in experiment [1] and in experiment [2] were 32.9 nM and 10.9 nM, respectively.

With `CC(C)CN(C(=O)c1cccc(Cl)c1)[C@H]1CCNC1` [Example 6, 3-Chloro-N-isobutyl-N-[(3S)-pyrrolidin-3-yl]benzamide], the results for the IC50 in experiment [1] and in experiment [2] were 56.9 nM and 45.2 nM, respectively.

Turning to `CC(C)CN(C(=O)c1ccc(Cl)cc1)[C@H]1CCNC1` [Example 7, 4-Chloro-N-isobutyl-N-[(3S)-pyrrolidin-3-yl]benzamide], the IC50 in experiment [1] came out at 55.4 nM; in experiment [2], 5.7 nM.

`CC(C)CN(C(=O)c1ccc(Cl)c(Cl)c1)[C@H]1CCNC1` [Example 8, 3,4-Dichloro-N-isobutyl-N-[(3S)-pyrrolidin-3-yl]benzamide]: the IC50 amounted to 16.7 nM in experiment [1] and 7.5 nM in experiment [2].

On to `O=C(c1ccccc1)N(Cc1ccc2ccccc2c1)[C@H]1CCNC1` [Example 9, N-(2-Naphthylmethyl)-N-[(3S)-pyrrolidin-3-yl]benzamide hydrochloride], for which the results for the IC50 in experiment [1] and in experiment [2] were 14 nM and 5.7 nM, respectively.

As for `O=C(c1ccccc1)N(Cc1ccc2ccccc2c1)[C@@H]1CCNC1` [Example 10, N-(2-Naphthylmethyl)-N-[(3R)-pyrrolidin-3-yl]benzamide hydrochloride], the figures for the IC50 in experiment [1] and in experiment [2] were 7.7 nM and 7.6 nM, respectively.

On to `CC(C)CN(C(=O)c1ccc2ccccc2c1)[C@H]1CCNC1` [Example 11, N-Isobutyl-N-[(3S)-pyrrolidin-3-yl]-2-naphthamide hydrochloride], for which the IC50 was 17 nM in experiment [1] and 3.2 nM in experiment [2].

Regarding `CCCCN(C(=O)c1cccc2ccccc12)[C@H]1CCNC1` [Example 12, N-Butyl-N-[(3S)-pyrrolidin-3-yl]-1-naphthamide hydrochloride], the IC50 was determined as 26.3 nM in experiment [1] and 21.5 nM in experiment [2].

Turning to `O=C(c1ccc(Cl)cc1)N(Cc1ccc(Cl)c(Cl)c1)[C@@H]1CCNC1` [Example 13, 4-Chloro-N-(3,4-dichlorobenzyl)-N-[(3R)-pyrrolidin-3-yl]benzamide hydrochloride], the IC50 in experiment [1] was found to be 3.1 nM; in experiment [2], 8.8 nM.

As to `O=C(c1ccc(Cl)cc1)N(Cc1cccc(Cl)c1Cl)[C@@H]1CCNC1` [Example 14, 4-Chloro-N-(2,3-dichlorobenzyl)-N-[(3R)-pyrrolidin-3-yl]benzamide hydrochloride], the IC50 in experiment [1] worked out at 57.1 nM; in experiment [2] it was 43 nM.

For `CC(C)CN(C(=O)c1cc(F)c(Cl)cc1Cl)[C@H]1CCNC1` [Example 15, 2,4-Dichloro-5-fluoro-N-isobutyl-N-[(3S)-pyrrolidin-3-yl]benzamide hydrochloride], the concentration for half-maximal inhibition (IC50) came out at 71.6 nM in experiment [1] and 17.5 nM in experiment [2].

By IC50 is commonly meant the concentration needed to halve the response being measured.
